# Assay results as given in patent US9115072B2, “Compounds and method for reducing uric acid” (WELLSTAT THERAPEUTICS CORPORATION, priority 2008, dated 2015).
# Where “and” joins values, the source holds several entries; their conditions need not be identical. Equal values may be shown once.
# Assay: Mouse oral single-dose pharmacokinetic study
# Format: in vivo
# Conditions: for Compound EH Concentration in mouse PLASMA: individual mice; for Compound EH concentr., mean: Data from Sigma Stat
# Protocol: • 1. Mice received single oral gavage of Compound EH, 100 mg/kg, and plasma was collected at certain times. • 2. Plasma was stored at −80° C. until the day of analysis. • 3. Samples were thawed on 37° C. bath for 5 min and vortexed at top speed for 10 sec. • 4. Mouse plasma, 0.1 mL was mixed with 0.2 mL Acetonitrile, vortexed 1 min, spun down 14000 rpm, 17000 g, at 4° C., for 25 min. • 5. Supernatants were filtered through 0.45 micron, 4 mm, PTFE membrane syringe filter (Phenomenex #AF0-3102-52), and 15 microL were injected and resolved on Luna 3 micron, 100 A pore, C8(2), 150×3 mm, reverse phase column (Phenomenex#00E-4248-YO, SN#259151-7) in 50 min linear gradient from 40% to 69% of (0.1% Formic Acid, 89.9% Acetonitrile, 10% Methanol) at 0.25 mL/min, 100 bar, 37° C. column temperature, method 406975M1, Sequence 0205-09A, Agilent 1100 LC-MS.
# All samples were run in duplicate, 210 nm and 230 nm Absorbances, Negative and Positive ionization spectrograms recorded.
# • Step 1. Plasma from “Vehicle” animals (pooled), 0.19 mL, was mixed with 0.01 mL 20× stock of Compound EH in Methanol to make 500 microM, 250 microM, 125 microM, . . . , concentrations of Compound EH in plasma. • For example: 190 microL plasma+10 microL of 10 mM Compound EH in methanol=0.2 mL plasma with 500 microM Compound EH. • Step 2. Samples from step 1 were vortexed for 10 sec at top speed. • Step 3. 0.4 mL of acetonitrile was added to all samples from Step 2, and all vials were vortexed at top speed for 1 min • Step 4. All samples from step 3 were spun down 14000 rpm, 17000 g, at 4° C., for 25 min. • Step 5. Supernatants were filtered through 0.45 micron, 4 mm, PTFE membrane syringe filter (Phenomenex #AF0-3102-52), 15 microL were injected and resolved on Luna 3 micron, 100 A pore, C8(2), 150×3 mm, reverse phase column
smiles,measurement,setting,value
"Cc1ccc(CC(=O)O)cc1OCc1c(C)cccc1C [Compound EH, 2-(3-(2,6-Dimethylbenzyloxy)-4-methylphenyl)acetic acid]",Compound EH Concentration in mouse PLASMA,"100 mg/kg single oral gavage, bleed time 0.5 HR, 100 mg/kg",430 µM and 342 µM and 523 µM
same,Compound EH Concentration in mouse PLASMA,"100 mg/kg single oral gavage, bleed time 1 HR, 100 mg/kg",467 µM and 447 µM and 406 µM
same,Compound EH Concentration in mouse PLASMA,"100 mg/kg single oral gavage, bleed time 2 HR, 100 mg/kg",178 µM and 238 µM and 241 µM
same,Compound EH Concentration in mouse PLASMA,"100 mg/kg single oral gavage, bleed time 4 HR, 100 mg/kg",148 µM and 154 µM and 134 µM
same,Compound EH Concentration in mouse PLASMA,"100 mg/kg single oral gavage, bleed time 6 HR, 100 mg/kg",93 µM and 268 µM and 231 µM
same,Compound EH Concentration in mouse PLASMA,"100 mg/kg single oral gavage, bleed time 8 HR, 100 mg/kg",95 µM and 147 µM and 187 µM
same,Compound EH Concentration in mouse PLASMA,"100 mg/kg single oral gavage, bleed time 12 HR, 100 mg/kg",79 µM and 36 µM and 74 µM
same,Compound EH Concentration in mouse PLASMA,"100 mg/kg single oral gavage, bleed time 16 HR, 100 mg/kg",25 µM and 61 µM
same,Compound EH Concentration in mouse PLASMA,"100 mg/kg single oral gavage, bleed time 24 HR, 100 mg/kg",40 µM and 26 µM and 0.74 µM
same,Compound EH Concentration in mouse PLASMA,"100 mg/kg single oral gavage, bleed time 48 HR",0 µM
same,"Compound EH concentr., mean","mouse plasma, 100 mg/kg oral, time bleed 0 HR",0 µM
same,"Compound EH concentr., mean","mouse plasma, 100 mg/kg oral, time bleed 0.5 HR",431.7 µM
same,"Compound EH concentr., mean","mouse plasma, 100 mg/kg oral, time bleed 1 HR",440 µM
same,"Compound EH concentr., mean","mouse plasma, 100 mg/kg oral, time bleed 2 HR",219 µM
same,"Compound EH concentr., mean","mouse plasma, 100 mg/kg oral, time bleed 4 HR",145.3 µM
same,"Compound EH concentr., mean","mouse plasma, 100 mg/kg oral, time bleed 6 HR",197.3 µM
same,"Compound EH concentr., mean","mouse plasma, 100 mg/kg oral, time bleed 8 HR",143 µM
same,"Compound EH concentr., mean","mouse plasma, 100 mg/kg oral, time bleed 12 HR",63 µM
same,"Compound EH concentr., mean","mouse plasma, 100 mg/kg oral, time bleed 16 HR",43 µM
same,"Compound EH concentr., mean","mouse plasma, 100 mg/kg oral, time bleed 24 HR",22.247 µM
same,"Compound EH concentr., mean","mouse plasma, 100 mg/kg oral, time bleed 48 HR",0 µM
same,Cmax,"mouse plasma, 100 mg/kg single oral gavage",440 µM
same,concentration at 0 h,"mouse, plasma, 100 mg/kg oral, Time 0 HR, Table 13, read-out: Cpd. EH (mouse plasma concentration)",0 nM
same,concentration at 0.5 h,"mouse, plasma, 100 mg/kg oral, Time 0.5 HR, Table 13, read-out: Cpd. EH (mouse plasma concentration)",432 µM
same,concentration at 1 h,"mouse, plasma, 100 mg/kg oral, Time 1 HR, Table 13, read-out: Cpd. EH (mouse plasma concentration)",440 µM
same,concentration at 2 h,"mouse, plasma, 100 mg/kg oral, Time 2 HR, Table 13, read-out: Cpd. EH (mouse plasma concentration)",219 µM
same,concentration at 4 h,"mouse, plasma, 100 mg/kg oral, Time 4 HR, Table 13, read-out: Cpd. EH (mouse plasma concentration)",145 µM
same,concentration at 6 h,"mouse, plasma, 100 mg/kg oral, Time 6 HR, Table 13, read-out: Cpd. EH (mouse plasma concentration)",197 µM
same,concentration at 8 h,"mouse, plasma, 100 mg/kg oral, Time 8 HR, Table 13, read-out: Cpd. EH (mouse plasma concentration)",143 µM
same,concentration at 12 h,"mouse, plasma, 100 mg/kg oral, Time 12 HR, Table 13, read-out: Cpd. EH (mouse plasma concentration)",63 µM
same,concentration at 16 h,"mouse, plasma, 100 mg/kg oral, Time 16 HR, Table 13, read-out: Cpd. EH (mouse plasma concentration)",43 µM
same,concentration at 24 h,"mouse, plasma, 100 mg/kg oral, Time 24 HR, Table 13, read-out: Cpd. EH (mouse plasma concentration)",22 µM
same,concentration at 48 h,"mouse, plasma, 100 mg/kg oral, Time 48 HR, Table 13, read-out: Cpd. EH (mouse plasma concentration)",0 nM
